Key:
Pin1 = Pin1 (Homo sapiens, UniProt Q13526, S16A/Y23A); assay: Fluorescence anisotropy binding to Pin1
HeLa cells = assay: MTT cell proliferation assay; assay type: cell-based; details: 0-20 μM, 72 h

bicyclo[Tm(D-Ala-Sar-D-Thr-D-Ala-Nal-Arg-Ala-D-Ala)-Dap-(Phe-Nal-Arg-Arg-Arg-Arg-Dap)]-Lys-NH2 [peptide 9]
Pin1 inhibitory activity (Pin1): abolished the Pin1 inhibitory activity | Effect on HeLa cell growth (HeLa cells): no effect
